Test results: US20260022142A1, “MACROCYCLIC IMMUNOMODULATORS” (Bristol-Myers Squibb Company, priority 2022, published 2026)
Bridge positions count the residues as written; N and C are the ends. Square brackets hold non-standard residues; d marks the D form. Peptide text beside a SMILES is read from it. * marks the point of attachment. ξ: configuration not given here. Phe(3-CF3) = N[C@@H](Cc1cccc(C(F)(F)F)c1)C(=O)O; Phe(4-COOH) = N[C@@H](Cc1ccc(C(=O)O)cc1)C(=O)O; Bip = N[C@@H](Cc1ccc(-c2ccccc2)cc1)C(=O)O; NH(CH2)14COOH = O=C(O)CCCCCCCCCCCCCCN*; Phe(3-Me) = Cc1cccc(C[C@H](N)C(=O)O)c1; Abu(3S-NH2) = C[C@H](N)[C@H](N)C(=O)O; NH(CH2)12COOH = O=C(O)CCCCCCCCCCCCN*; Val(3-OH) = CC(C)(O)[C@H](N)C(=O)O; hArg = N=C(N)NCCCC[C@H](N)C(=O)O; 4Pal = N[C@@H](Cc1ccncc1)C(=O)O; Cha = N[C@@H](CC1CCCCC1)C(=O)O; Thr(3ξ) = CC(O)[C@H](N)C(=O)O; PEG4 = NCCOCCOCCOCCOCCC(=O)O; Carboxymethyl = O=C(O)C*; Orn = NCCC[C@H](N)C(=O)O; Pra = C#CC[C@H](N)C(=O)O; Aun = NCCCCCCCCCCC(=O)O; Dab = NCC[C@H](N)C(=O)O; Dap = NC[C@H](N)C(=O)O; AEEA = NCCOCCOCC(=O)O; ξC = NC(CS)C(=O)O

target: T1, PD-1/PD-L1 interaction (PE-labeled human PD-L1-Ig binding to Jurkat cell line over-expressing human PD-1) (Homo sapiens, UniProt Q15116); assay: Jurkat-PD-1 Cell Binding High-Content Screening Assay (CBA); type: cell-based; settings: Jurkat cell line over-expressing human PD-1; PE-labeled PD-L1-Ig 20 nM final; read-out: Jurkat hPD1-PDL1 IC50
T1 construct: expressed in transfected cells; host or cells: Jurkat
In short: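 Jurkat cells stably over-expressing human PD-1 were seeded in DMEM with 10% fetal calf serum and pre-incubated with compound for 2 h at 37° C. PE-labeled human PD-L1-Ig was then added at 20 nM final for 1 hour, after which cells were fixed with paraformaldehyde, Hoechst-stained and imaged by high-content microscopy.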

T1 sequence (Q15116 25-288): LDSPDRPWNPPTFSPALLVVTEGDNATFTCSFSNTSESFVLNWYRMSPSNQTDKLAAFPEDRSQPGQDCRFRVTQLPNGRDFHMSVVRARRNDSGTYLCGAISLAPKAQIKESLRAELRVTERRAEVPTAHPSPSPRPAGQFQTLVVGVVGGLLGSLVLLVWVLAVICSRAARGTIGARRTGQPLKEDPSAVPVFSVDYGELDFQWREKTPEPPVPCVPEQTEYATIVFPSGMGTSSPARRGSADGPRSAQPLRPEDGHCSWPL

| IC50 [nM] | Compound |
| --- | --- |
| 9.1 | Cc1cccc(C[C@@H]2NC(=O)[C@H](CC(=O)O)NC(=O)[C@H](Cc3ccc(OCC(=O)O)cc3)NC(=O)[C@H](Cc3ccncc3)NC(=O)CSC[C@@H](C(=O)N[C@@H](CCN)C(=O)NCCCCCCCCCCC(=O)O)NC(=O)[C@H]([C@H](C)N)NC(=O)[C@H](C(C)(C)O)NC(=O)[C@H](CC3CCCCC3)NC(=O)[C@H](CCN)NC(=O)[C@@H](CC(C)C)NC(=O)[C@H](CCCN)NC(=O)[C@H](Cc3ccc(OCC(=O)O)cc3)NC(=O)[C@H](Cc3ccc(-c4ccccc4)cc3)NC(=O)[C@H](Cc3ccc(OCC(=O)O)cc3)NC2=O)c1 [Compound 2142] ({CH2CO}-[4Pal]Y(Carboxymethyl)D[Phe(3-Me)]Y(Carboxymethyl)[Bip]Y(Carboxymethyl)[Orn][dL][Dab][Cha][Val(3-OH)][Abu(3S-NH2)]C[Dab][Aun]-OH; thioether N-14) |
| 264 | CC(C)C[C@H]1NC(=O)[C@H](CCCN)NC(=O)[C@H](Cc2ccc(C(=O)O)cc2)NC(=O)[C@H](Cc2ccc(-c3ccccc3)cc2)NC(=O)[C@H](Cc2ccc(C(=O)O)cc2)NC(=O)[C@H](Cc2cccc(C(F)(F)F)c2)NC(=O)[C@H](CC(=O)O)NC(=O)[C@H](Cc2ccc(OCC(=O)O)cc2)NC(=O)[C@H](C)NC(=O)CSC[C@@H](C(=O)N[C@@H](CCN)C(=O)NCCOCCOCCOCCOCCC(=O)NCCCCCCCCCCCCCCC(=O)O)NC(=O)[C@H](Cc2c[nH]cn2)NC(=O)[C@H](C(C)(C)O)NC(=O)[C@H](CC2CCCCC2)NC(=O)[C@H](CCN)NC1=O [Compound 2954] ({CH2CO}-AY(Carboxymethyl)D[Phe(3-CF3)][Phe(4-COOH)][Bip][Phe(4-COOH)][Orn][dL][Dab][Cha][Val(3-OH)]HC[Dab][PEG4]-{NH(CH2)14COOH}; thioether N-14) |
| 70.3 | Cc1cccc(C[C@@H]2NC(=O)[C@H](CC(=O)O)NC(=O)[C@H](Cc3ccc(OCC(=O)O)cc3)NC(=O)[C@H](Cc3ccccc3)NC(=O)CSC[C@@H](C(=O)N[C@@H](CCN)C(=O)NCCCCCCCCCCC(=O)O)NC(=O)[C@H](CO)NC(=O)[C@H](Cc3cnc[nH]3)NC(=O)[C@H](CC3CCCCC3)NC(=O)[C@H](CCN)NC(=O)[C@@H](CC(C)C)NC(=O)[C@H](CCCN)NC(=O)[C@H](Cc3ccc(OCC(=O)O)cc3)NC(=O)[C@H](Cc3ccc(-c4ccccc4)cc3)NC(=O)[C@H](Cc3ccc(C(=O)O)cc3)NC2=O)c1 [Compound 3706] ({CH2CO}-FY(Carboxymethyl)D[Phe(3-Me)][Phe(4-COOH)][Bip]Y(Carboxymethyl)[Orn][dL][Dab][Cha]HSC[Dab][Aun]-OH; thioether N-14) |
| 14.8 | C#CC[C@H](NC(=O)COCCOCCNC(=O)[C@H](CCN)NC(=O)[C@@H]1CSCC(=O)N[C@@H](Cc2ccncc2)C(=O)N[C@@H](Cc2ccc(OCC(=O)O)cc2)C(=O)N[C@@H](CC(=O)O)C(=O)N[C@@H](Cc2c[nH]c3ccccc23)C(=O)N[C@@H](C(C)C)C(=O)N[C@@H](Cc2ccc(-c3ccccc3)cc2)C(=O)N[C@@H]([C@@H](C)CC)C(=O)N[C@@H](CCCN)C(=O)N[C@H](CC(C)C)C(=O)N[C@@H](CCN)C(=O)N[C@@H](CC(C)C)C(=O)N[C@@H](C(C)C)C(=O)N[C@@H]([C@@H](C)O)C(=O)N1)C(=O)N[C@@H](CCN)C(=O)NCCCCCCCCCCC(=O)O [Compound 1194] ({CH2CO}-[4Pal]Y(Carboxymethyl)DWV[Bip]I[Orn][dL][Dab]LVTC[Dab][AEEA][Pra][Dab][Aun]-OH; thioether N-14) |
| 22.2 | Cc1cccc(C[C@@H]2NC(=O)[C@H](CC(=O)O)NC(=O)[C@H](Cc3ccc(OCC(=O)O)cc3)NC(=O)[C@H](CCCNC(=N)N)NC(=O)CSC[C@@H](C(=O)N[C@@H](CCN)C(=O)NCCCCCCCCCCC(=O)O)NC(=O)[C@H]([C@@H](C)O)NC(=O)[C@H](C(C)C)NC(=O)[C@H](CC3CCCCC3)NC(=O)[C@H](CCN)NC(=O)[C@@H](CC(C)C)NC(=O)[C@H](CCCN)NC(=O)[C@H](Cc3ccc(OCC(=O)O)cc3)NC(=O)[C@H](Cc3ccc(-c4ccccc4)cc3)NC(=O)[C@H](C(C)(C)O)NC2=O)c1 [Compound 2109] ({CH2CO}-RY(Carboxymethyl)D[Phe(3-Me)][Val(3-OH)][Bip]Y(Carboxymethyl)[Orn][dL][Dab][Cha]VTC[Dab][Aun]-OH; thioether N-14) |
| 19 | CC[C@H](C)[C@@H]1NC(=O)[C@H](Cc2ccc(-c3ccccc3)cc2)NC(=O)[C@H](C(C)C)NC(=O)[C@H](Cc2cccc(C)c2)NC(=O)[C@H](CC(=O)O)NC(=O)[C@H](Cc2ccc(OCC(=O)O)cc2)NC(=O)[C@H](CN)NC(=O)CSC[C@@H](C(=O)N[C@@H](CCCCN)C(=O)NCCCCCCCCCCC(=O)O)NC(=O)[C@H](CN)NC(=O)[C@H](C(C)C)NC(=O)[C@H](CC2CCCCC2)NC(=O)[C@H](CCN)NC(=O)[C@@H](CC(C)C)NC(=O)[C@H](CCCN)NC1=O [Compound 2638] ({CH2CO}-[Dap]Y(Carboxymethyl)D[Phe(3-Me)]V[Bip]I[Orn][dL][Dab][Cha]V[Dap]CK[Aun]-OH; thioether N-14) |
| 2.6 | Cc1cccc(C[C@@H]2NC(=O)[C@H](CC(=O)O)NC(=O)[C@H](Cc3ccc(OCC(=O)O)cc3)NC(=O)[C@H](CCCCNC(=N)N)NC(=O)CSC[C@@H](C(=O)N[C@@H](CCN)C(=O)NCCCCCCCCCCC(=O)O)NC(=O)[C@H](CO)NC(=O)[C@H](C(C)(C)O)NC(=O)[C@H](CC3CCCCC3)NC(=O)[C@H](CCN)NC(=O)[C@@H](CC(C)C)NC(=O)[C@H](CCCN)NC(=O)[C@H](Cc3ccc(OCC(=O)O)cc3)NC(=O)[C@H](Cc3ccc(-c4ccccc4)cc3)NC(=O)[C@H](Cc3ccc(OCC(=O)O)cc3)NC2=O)c1 [Compound 2234] ({CH2CO}-[hArg]Y(Carboxymethyl)D[Phe(3-Me)]Y(Carboxymethyl)[Bip]Y(Carboxymethyl)[Orn][dL][Dab][Cha][Val(3-OH)]SC[Dab][Aun]-OH; thioether N-14) |
| 7.3 | CC(C)C[C@H]1NC(=O)[C@H](CCCN)NC(=O)[C@H](C(C)C)NC(=O)[C@H](Cc2ccc(-c3ccccc3)cc2)NC(=O)[C@H](C(C)C)NC(=O)[C@H](Cc2c[nH]c3ccccc23)NC(=O)[C@H](CC(=O)O)NC(=O)[C@H](Cc2ccc(C(=O)O)cc2)NC(=O)[C@H](C(C)O)NC(=O)CSC[C@@H](C(=O)N[C@@H](C)C(=O)NCCOCCOCC(=O)N[C@@H](CCN)C(=O)NCCCCCCCCCCC(=O)O)NC(=O)[C@H](C(C)O)NC(=O)[C@H](C(C)C)NC(=O)[C@H](CC2CCCCC2)NC(=O)[C@H](CCN)NC1=O (stereo partly drawn) [Compound 3022] ({CH2CO}-[Thr(3ξ)][Phe(4-COOH)]DWV[Bip]V[Orn][dL][Dab][Cha]V[Thr(3ξ)]CA[AEEA][Dab][Aun]-OH; thioether N-14) |
| 30.5 | Cc1cccc(C[C@@H]2NC(=O)[C@H](CC(=O)O)NC(=O)[C@H](Cc3ccc(OCC(=O)O)cc3)NC(=O)[C@H](CN)NC(=O)CSC[C@@H](C(=O)N[C@@H](CCN)C(=O)NCCCCCCCCCCC(=O)O)NC(=O)[C@@H](CC(N)=O)NC(=O)[C@H](C(C)C)NC(=O)[C@H](CC(C)C)NC(=O)[C@H](CCN)NC(=O)[C@@H](CC(C)C)NC(=O)[C@H](CCCN)NC(=O)[C@H](Cc3ccc(O)cc3)NC(=O)[C@H](Cc3ccc(-c4ccccc4)cc3)NC(=O)[C@H](C(C)C)NC2=O)c1 [Compound 2755] ({CH2CO}-[Dap]Y(Carboxymethyl)D[Phe(3-Me)]V[Bip]Y[Orn][dL][Dab]LV[dN]C[Dab][Aun]-OH; thioether N-14) |
| 5 | Cc1cccc(C[C@@H]2NC(=O)[C@H](CC(=O)O)NC(=O)[C@H](Cc3ccc(OCC(=O)O)cc3)NC(=O)[C@H](CCCNC(=N)N)NC(=O)CSC[C@@H](C(=O)NCCOCCOCC(=O)N[C@@H](CCN)C(=O)NCCCCCCCCCCC(=O)O)NC(=O)[C@H](CCCCN)NC(=O)[C@H](C(C)C)NC(=O)[C@H](CC3CCCCC3)NC(=O)[C@H](CN)NC(=O)[C@@H](CC(C)C)NC(=O)[C@H](CCCN)NC(=O)[C@H](C(C)C)NC(=O)[C@H](Cc3ccc(-c4ccccc4)cc3)NC(=O)[C@H](C(C)C)NC2=O)c1 [Compound 3293] ({CH2CO}-RY(Carboxymethyl)D[Phe(3-Me)]V[Bip]V[Orn][dL][Dap][Cha]VKC[AEEA][Dab][Aun]-OH; thioether N-14) |
| 74 | CC(C)C[C@H]1NC(=O)[C@H](CCCN)NC(=O)[C@H](C(C)C)NC(=O)[C@H](Cc2ccc(-c3ccccc3)cc2)NC(=O)[C@H](C(C)C)NC(=O)[C@H](Cc2c[nH]c3ccccc23)NC(=O)[C@H](CC(=O)O)NC(=O)[C@H](Cc2ccc(OCC(=O)O)cc2)NC(=O)[C@H](CN)NC(=O)CSCC(C(=O)N[C@@H](Cc2cnc[nH]2)C(=O)NCCCCCCCCCCC(=O)O)NC(=O)[C@H]([C@@H](C)O)NC(=O)[C@H](C(C)C)NC(=O)[C@H](CC2CCCCC2)NC(=O)[C@H](Cc2cnc[nH]2)NC1=O (stereo partly drawn) [Compound 1126] ({CH2CO}-[Dap]Y(Carboxymethyl)DWV[Bip]V[Orn][dL]H[Cha]VT[ξC]H[Aun]-OH; thioether N-14) |
| 24.5 | CC(=O)NCCCC[C@@H]1NC(=O)[C@H](C(C)(C)O)NC(=O)[C@H](CC2CCCCC2)NC(=O)[C@H](CCN)NC(=O)[C@@H](CC(C)C)NC(=O)[C@H](CCCN)NC(=O)[C@H](CCC(N)=O)NC(=O)[C@H](Cc2ccc(-c3ccccc3)cc2)NC(=O)[C@H](Cc2ccc(C(=O)O)cc2)NC(=O)[C@H](Cc2cccc(C(F)(F)F)c2)NC(=O)[C@H](CC(=O)O)NC(=O)[C@H](Cc2ccc(OCC(=O)O)cc2)NC(=O)[C@H](Cc2ccc(OCC(=O)O)cc2)NC(=O)CSC[C@@H](C(=O)N[C@@H](CCN)C(=O)NCCCCCCCCCCCCC(=O)O)NC1=O [Compound 3881] ({CH2CO}-Y(Carboxymethyl)Y(Carboxymethyl)D[Phe(3-CF3)][Phe(4-COOH)][Bip]Q[Orn][dL][Dab][Cha][Val(3-OH)]K(Ac)C[Dab]-{NH(CH2)12COOH}; thioether N-14) |
